From patent US20240158370A1, “CK1 alpha AND DUAL CK1 alpha / GSPT1 DEGRADING COMPOUNDS” (Innovo Therapeutics, Inc., priority 2022, published 2024)

Key:
[1] = target: GSPT1 (Homo sapiens, UniProt P15170+Q96SW2); experiment: HiBiT degradation assay, GSPT1, Procedure A; format: cell-based; design: HiBit-GSPT1 KI HEK293(LgBit) Cells; host or cells: HEK293(LgBit) knock-in cells; conditions: six hours incubation
Procedure, shortened: (§1)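 10-pt dose response, 10–0.005 μM, 0.1% DMSO; cells 1×10^6/ml in DMEM/10% FBS, 6 h, 37° C; HiBiT lytic detection, luminescence; DC50 + Ymin by 4-parameter fit.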

[2] = target: T1, CK1α (Homo sapiens, UniProt P48729+Q96SW2); experiment: HiBiT degradation assay, CK1α, Procedure A; format: cell-based; conditions: six hours incubation
T1 construct: CSNK1A1-HiBit KI HEK293(LgBit) Cells; host or cells: HEK293(LgBit) knock-in cells
T1 sequence (P48729 whole entry): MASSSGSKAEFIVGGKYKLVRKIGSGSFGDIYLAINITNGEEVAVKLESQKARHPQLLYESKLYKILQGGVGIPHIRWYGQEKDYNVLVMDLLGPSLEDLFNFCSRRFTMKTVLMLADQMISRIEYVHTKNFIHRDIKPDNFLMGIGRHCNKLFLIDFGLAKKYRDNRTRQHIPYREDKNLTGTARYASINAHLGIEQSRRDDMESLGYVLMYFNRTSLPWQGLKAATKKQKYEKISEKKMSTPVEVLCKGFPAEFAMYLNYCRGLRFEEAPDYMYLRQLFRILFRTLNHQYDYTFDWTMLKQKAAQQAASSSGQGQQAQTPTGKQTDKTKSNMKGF
T1 sequence (Q96SW2 whole entry): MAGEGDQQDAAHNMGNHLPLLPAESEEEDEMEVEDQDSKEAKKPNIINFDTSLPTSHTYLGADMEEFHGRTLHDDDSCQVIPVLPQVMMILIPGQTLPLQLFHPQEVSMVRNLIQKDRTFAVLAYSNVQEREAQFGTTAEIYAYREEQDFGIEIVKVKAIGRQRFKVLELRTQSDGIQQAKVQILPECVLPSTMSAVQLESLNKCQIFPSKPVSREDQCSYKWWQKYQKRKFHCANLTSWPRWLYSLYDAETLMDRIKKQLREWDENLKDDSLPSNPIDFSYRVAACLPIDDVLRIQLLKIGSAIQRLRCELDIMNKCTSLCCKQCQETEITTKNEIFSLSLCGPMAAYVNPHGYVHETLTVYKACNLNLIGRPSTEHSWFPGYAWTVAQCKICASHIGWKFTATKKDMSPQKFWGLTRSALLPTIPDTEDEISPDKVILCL
T1 sequence (Q16531 whole entry partner): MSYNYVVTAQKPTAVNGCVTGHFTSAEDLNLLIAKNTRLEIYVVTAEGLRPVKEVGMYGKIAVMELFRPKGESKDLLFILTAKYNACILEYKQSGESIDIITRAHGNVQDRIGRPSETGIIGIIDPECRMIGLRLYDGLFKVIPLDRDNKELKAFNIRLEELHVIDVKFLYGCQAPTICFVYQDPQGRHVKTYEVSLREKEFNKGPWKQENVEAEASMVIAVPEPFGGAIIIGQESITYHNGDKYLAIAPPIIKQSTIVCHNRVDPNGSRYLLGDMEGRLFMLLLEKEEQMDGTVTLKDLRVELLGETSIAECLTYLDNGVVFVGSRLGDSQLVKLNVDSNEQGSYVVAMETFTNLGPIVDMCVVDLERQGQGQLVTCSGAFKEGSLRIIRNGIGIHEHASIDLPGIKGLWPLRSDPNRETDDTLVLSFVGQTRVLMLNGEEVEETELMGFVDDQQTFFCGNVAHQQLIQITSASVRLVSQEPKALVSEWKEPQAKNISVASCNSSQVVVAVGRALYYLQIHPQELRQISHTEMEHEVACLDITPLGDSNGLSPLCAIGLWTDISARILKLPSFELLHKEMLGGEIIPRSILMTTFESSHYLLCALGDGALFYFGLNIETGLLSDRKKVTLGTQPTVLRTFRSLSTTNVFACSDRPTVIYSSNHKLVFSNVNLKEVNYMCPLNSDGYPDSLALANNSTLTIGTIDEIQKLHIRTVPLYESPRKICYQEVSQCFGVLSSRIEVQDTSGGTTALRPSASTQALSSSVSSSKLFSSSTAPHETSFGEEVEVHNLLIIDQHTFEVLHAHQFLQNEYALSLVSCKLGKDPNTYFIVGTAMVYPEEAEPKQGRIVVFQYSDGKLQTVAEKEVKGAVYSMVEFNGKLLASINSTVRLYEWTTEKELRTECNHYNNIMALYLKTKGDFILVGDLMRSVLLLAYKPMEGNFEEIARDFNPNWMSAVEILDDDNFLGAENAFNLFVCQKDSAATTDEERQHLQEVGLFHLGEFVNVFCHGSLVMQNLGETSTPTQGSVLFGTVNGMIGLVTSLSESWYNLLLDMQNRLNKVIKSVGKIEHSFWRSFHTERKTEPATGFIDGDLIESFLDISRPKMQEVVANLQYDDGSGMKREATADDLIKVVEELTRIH
Procedure, shortened: as §1

Chain of GSPT1 (P15170 whole entry): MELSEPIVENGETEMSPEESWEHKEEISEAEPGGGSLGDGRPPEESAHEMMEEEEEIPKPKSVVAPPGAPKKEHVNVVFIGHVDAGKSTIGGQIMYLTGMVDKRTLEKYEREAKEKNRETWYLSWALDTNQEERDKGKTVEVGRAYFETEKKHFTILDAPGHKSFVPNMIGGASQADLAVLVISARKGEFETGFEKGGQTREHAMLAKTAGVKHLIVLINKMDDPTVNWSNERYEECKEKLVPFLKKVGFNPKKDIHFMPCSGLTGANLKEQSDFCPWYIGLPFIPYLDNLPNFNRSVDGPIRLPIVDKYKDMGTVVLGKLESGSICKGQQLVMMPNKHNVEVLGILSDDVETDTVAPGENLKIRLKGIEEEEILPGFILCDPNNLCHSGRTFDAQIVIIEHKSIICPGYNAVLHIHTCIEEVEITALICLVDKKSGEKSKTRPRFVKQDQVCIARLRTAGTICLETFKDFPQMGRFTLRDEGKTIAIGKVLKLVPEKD
Chain of GSPT1 (Q96SW2 whole entry): as the sequence (Q96SW2 whole entry) above
Chain of GSPT1 (Q16531 whole entry partner): as the sequence (Q16531 whole entry partner) above

| DC50 [1] | GSPT1 Ymin [1] | CK1α Ymin [2] | DC50 [2] | Compound |
| --- | --- | --- | --- | --- |
| ≥ 0.025 µM | F (F = >75-100% remaining) | E (E = >25-75% remaining) | < 0.025 µM | COc1ccc(Cl)c(-c2c(-c3ccc4c(c3)CN(C3CCC(=O)NC3=O)C4=O)cnn2C)c1 (stereo not drawn) [Example 82] |
| ≥ 0.025 µM | F (F = >75-100% remaining) | E (E = >25-75% remaining) | < 0.025 µM | Cc1ccc(-c2c(-c3ccc4c(c3)CN(C3CCC(=O)NC3=O)C4=O)cnn2C)c(C)c1 (stereo not drawn) [Example 83] |
| ≥ 0.025 µM | F (F = >75-100% remaining) | E (E = >25-75% remaining) | < 0.025 µM | CC(C)c1ccc(-c2c(-c3ccc4c(c3)CN(C3CCC(=O)NC3=O)C4=O)cnn2C)cc1 (stereo not drawn) [Example 84] |
| ≥ 0.025 µM | F (F = >75-100% remaining) | E (E = >25-75% remaining) | < 0.025 µM | Cc1ccc(-c2c(-c3ccc4c(c3)CN(C3CCC(=O)NC3=O)C4=O)cnn2C)c(Cl)c1 (stereo not drawn) [Example 85] |
| ≥ 0.025 µM | F (F = >75-100% remaining) | E (E = >25-75% remaining) | < 0.025 µM | Cc1ccc(Cl)c(-c2c(-c3ccc4c(c3)CN(C3CCC(=O)NC3=O)C4=O)cnn2C)c1 (stereo not drawn) [Example 86] |
| ≥ 0.025 µM | F (F = >75-100% remaining) | E (E = >25-75% remaining) | < 0.025 µM | Cc1ccc(C)c(-c2c(-c3ccc4c(c3)CN(C3CCC(=O)NC3=O)C4=O)cnn2C)c1 (stereo not drawn) [Example 87] |
| ≥ 0.025 µM | F (F = >75-100% remaining) | E (E = >25-75% remaining) | < 0.025 µM | Cn1ncc(-c2ccc3c(c2)CN(C2CCC(=O)NC2=O)C3=O)c1-c1ccc(F)cc1Cl (stereo not drawn) [Example 88] |
| ≥ 0.025 µM | F (F = >75-100% remaining) | E (E = >25-75% remaining) | < 0.025 µM | Cc1ccc(F)c(-c2c(-c3ccc4c(c3)CN(C3CCC(=O)NC3=O)C4=O)cnn2C)c1 (stereo not drawn) [Example 89] |
| ≥ 0.025 µM | F (F = >75-100% remaining) | E (E = >25-75% remaining) | < 0.025 µM | Cn1ncc(-c2ccc3c(c2)CN(C2CCC(=O)NC2=O)C3=O)c1-c1ccc(Cl)c(F)c1 (stereo not drawn) [Example 90] |
| ≥ 0.025 µM | E (E = >25-75% remaining) | E (E = >25-75% remaining) | < 0.025 µM | Cc1cc(-c2c(-c3ccc4c(c3)CN(C3CCC(=O)NC3=O)C4=O)cnn2C)ccc1F (stereo not drawn) [Example 91] |
| ≥ 0.025 µM | F (F = >75-100% remaining) | E (E = >25-75% remaining) | ≥ 0.025 µM | CC(C)Cc1ccc(-c2c(-c3ccc4c(c3)CN(C3CCC(=O)NC3=O)C4=O)cnn2C)cc1 (stereo not drawn) [Example 92] |
| ≥ 0.025 µM | F (F = >75-100% remaining) | E (E = >25-75% remaining) | ≥ 0.025 µM | Cn1ncc(-c2ccc3c(c2)CN(C2CCC(=O)NC2=O)C3=O)c1-c1cc(Cl)ccc1F (stereo not drawn) [Example 93] |
| ≥ 0.025 µM | F (F = >75-100% remaining) | D (D = >10- 25% remaining) | < 0.025 µM | Cc1ccc(-c2c(-c3ccc4c(c3)CN(C3CCC(=O)NC3=O)C4=O)cnn2C)c(F)c1 (stereo not drawn) [Example 94] |
| ≥ 0.025 µM | F (F = >75-100% remaining) | D (D = >10- 25% remaining) | < 0.025 µM | Cn1ncc(-c2ccc3c(c2)CN(C2CCC(=O)NC2=O)C3=O)c1-c1ccsc1 (stereo not drawn) [Example 95] |
| ≥ 0.025 µM | F (F = >75-100% remaining) | E (E = >25-75% remaining) | ≥ 0.025 µM | COc1ccccc1-c1c(-c2ccc3c(c2)CN(C2CCC(=O)NC2=O)C3=O)cnn1C (stereo not drawn) [Example 96] |
| ≥ 0.025 µM | F (F = >75-100% remaining) | D (D = >10- 25% remaining) | < 0.025 µM | Cn1ncc(-c2ccc3c(c2)CN(C2CCC(=O)NC2=O)C3=O)c1-c1ccc2c(c1)CCO2 (stereo not drawn) [Example 97] |
| ≥ 0.025 µM | F (F = >75-100% remaining) | E (E = >25-75% remaining) | ≥ 0.025 µM | Cn1ncc(-c2ccc3c(c2)CN(C2CCC(=O)NC2=O)C3=O)c1-c1ccc(C(=O)NC2CCCC2)cc1 (stereo not drawn) [Example 98] |
| ≥ 0.025 µM | F (F = >75-100% remaining) | E (E = >25-75% remaining) | < 0.025 µM | Cc1cc(-c2c(-c3ccc4c(c3)CN(C3CCC(=O)NC3=O)C4=O)cnn2C)ccc1Cl (stereo not drawn) [Example 99] |

| DC50 [1] | GSPT1 Ymin [1] | CK1α Ymin [2] | DC50 [2] | Compound |
| --- | --- | --- | --- | --- |
| ≥ 0.025 µM | F (F = >75-100% remaining) | E (E = >25-75% remaining) | ≥ 0.025 µM | Cn1ncc(-c2ccc3c(c2)CN(C2CCC(=O)NC2=O)C3=O)c1-c1ccc(NC(=O)c2ccccc2)cc1 (stereo not drawn) [Example 100] |
| ≥ 0.025 µM | F (F = >75-100% remaining) | E (E = >25-75% remaining) | < 0.025 µM | Cn1ncc(-c2ccc3c(c2)CN(C2CCC(=O)NC2=O)C3=O)c1-c1ccc(-c2ccc(C#N)cc2)cc1 (stereo not drawn) [Example 101] |
| ≥ 0.025 µM | F (F = >75-100% remaining) | E (E = >25-75% remaining) | ≥ 0.025 µM | Cn1ncc(-c2ccc3c(c2)CN(C2CCC(=O)NC2=O)C3=O)c1-c1ccc(C(=O)NCc2ccccc2)c(Cl)c1 (stereo not drawn) [Example 102] |
| ≥ 0.025 µM | F (F = >75-100% remaining) | D (D = >10- 25% remaining) | < 0.025 µM | Cn1ncc(-c2ccc3c(c2)CN(C2CCC(=O)NC2=O)C3=O)c1-c1ccc(-c2cccnc2)cc1 (stereo not drawn) [Example 103] |
| ≥ 0.025 µM | F (F = >75-100% remaining) | C (C = 0-10% remaining) | < 0.025 µM | COc1ccc(-c2c(-c3ccc4c(c3)CN(C3CCC(=O)NC3=O)C4=O)cnn2C)cc1F (stereo not drawn) [Example 104] |
| ≥ 0.025 µM | F (F = >75-100% remaining) | E (E = >25-75% remaining) | < 0.025 µM | Cn1ncc(-c2ccc3c(c2)CN(C2CCC(=O)NC2=O)C3=O)c1-c1cccc2c1OCC2 (stereo not drawn) [Example 105] |
| ≥ 0.025 µM | F (F = >75-100% remaining) | E (E = >25-75% remaining) | < 0.025 µM | Cc1cccc(-c2c(-c3ccc4c(c3)CN(C3CCC(=O)NC3=O)C4=O)cnn2C)c1F (stereo not drawn) [Example 106] |
| ≥ 0.025 µM | F (F = >75-100% remaining) | E (E = >25-75% remaining) | < 0.025 µM | COc1c(F)cccc1-c1c(-c2ccc3c(c2)CN(C2CCC(=O)NC2=O)C3=O)cnn1C (stereo not drawn) [Example 107] |
| ≥ 0.025 µM | F (F = >75-100% remaining) | E (E = >25-75% remaining) | < 0.025 µM | Cn1ncc(-c2ccc3c(c2)CN(C2CCC(=O)NC2=O)C3=O)c1-c1cccc(F)c1Cl (stereo not drawn) [Example 108] |
| ≥ 0.025 µM | F (F = >75-100% remaining) | E (E = >25-75% remaining) | < 0.025 µM | Cc1ccc(-c2c(-c3ccc4c(c3)CN(C3CCC(=O)NC3=O)C4=O)cnn2C)c(C#N)c1 (stereo not drawn) [Example 109] |
| ≥ 0.025 µM | F (F = >75-100% remaining) | E (E = >25-75% remaining) | < 0.025 µM | Cn1ncc(-c2ccc3c(c2)CN(C2CCC(=O)NC2=O)C3=O)c1-c1ccc(C2(C#N)CC2)cc1 (stereo not drawn) [Example 110] |
| ≥ 0.025 µM | F (F = >75-100% remaining) | F (F = >75-100% remaining) | ≥ 0.025 µM | Cn1ncc(-c2ccc3c(c2)CN(C2CCC(=O)NC2=O)C3=O)c1-c1cccc(N2CCCCC2)c1 (stereo not drawn) [Example 111] |
| ≥ 0.025 µM | F (F = >75-100% remaining) | D (D = >10- 25% remaining) | < 0.025 µM | Cn1ncc(-c2ccc3c(c2)CN(C2CCC(=O)NC2=O)C3=O)c1-c1ccc(COc2ccccc2)cc1 (stereo not drawn) [Example 112] |
| ≥ 0.025 µM | F (F = >75-100% remaining) | D (D = >10- 25% remaining) | < 0.025 µM | COc1ccc(-c2c(-c3ccc4c(c3)CN(C3CCC(=O)NC3=O)C4=O)cnn2C)cc1OCc1ccccc1 (stereo not drawn) [Example 113] |
| ≥ 0.025 µM | F (F = >75-100% remaining) | E (E = >25-75% remaining) | < 0.025 µM | Cn1ncc(-c2ccc3c(c2)CN(C2CCC(=O)NC2=O)C3=O)c1-c1cccc2c1CCC2 (stereo not drawn) [Example 114] |
| ≥ 0.025 µM | F (F = >75-100% remaining) | E (E = >25-75% remaining) | < 0.025 µM | Cn1ncc(-c2ccc3c(c2)CN(C2CCC(=O)NC2=O)C3=O)c1-c1ccccc1C1CC1 (stereo not drawn) [Example 115] |
| ≥ 0.025 µM | F (F = >75-100% remaining) | E (E = >25-75% remaining) | ≥ 0.025 µM | Cn1ncc(-c2ccc3c(c2)CN(C2CCC(=O)NC2=O)C3=O)c1C1CC1 (stereo not drawn) [Example 116] |
| ≥ 0.025 µM | F (F = >75-100% remaining) | C (C = 0-10% remaining) | < 0.025 µM | Cn1c(C2CC2)nc(-c2ccc3c(c2)CN(C2CCC(=O)NC2=O)C3=O)c1-c1cncnc1 (stereo not drawn) [Example 117, 3-(5-(2-cyclopropyl-1-methyl-5-(pyrimidin-5-yl)-1H-imidazol-4-yl)-1-oxoisoindolin-2-yl)piperidine-2,6-dione] |
